The source made the active and inactive calls. The rule behind the calls is not given here.

The record followed here is ChEMBL document CHEMBL5214945, “Identification of small-molecule inhibitors of the DNA repair proteins RuvAB from Pseudomonas aeruginosa” (Bioorg Med Chem, 2022).

Assay [1] in a line: Inhibition of Thermus thermophilus RuvA/RuvB protein complex helicase activity expressed in Escherichia coli BL21(DE3) assessed as inhibition of HJ branch migration preincubated for 15 mins followed by substrate addition and measured after 1 hr using 5'-FAM labelled 5'-CACTGTGATGCACGATGATTGACGACAGTAGTCAGTGCTGCAGTGGTCAGGTGTC-3' HJ-a duplex DNA as substrate in presence of ATP by PAGE analysis.

Assay [2] relates to Pseudomonas aeruginosa. Kind of assay: Binding affinity to CM5 chip immobilized Pseudomonas aeruginosa RuvB D114N mutant expressed in Escherichia coli BL21(DE3) assessed as association rate constant (ka) measured for 240 sec by surface plasmon resonance analysis. In general terms: Surface plasmon resonance follows binding to a sensor surface in real time, without labels.
Assay [3] in a line: Binding affinity to CM5 chip immobilized Pseudomonas aeruginosa RuvB D114N mutant expressed in Escherichia coli BL21(DE3) assessed as dissociation constant measured for 180 sec by surface plasmon resonance analysis.
For assay [4], the system named is Pseudomonas aeruginosa. The assay is described as follows: Antimicrobial activity against Pseudomonas aeruginosa ATCC27853 assessed as colony formation at 50 uM preincubated for 1 hr followed by UV-light irradiation for 5 mins then culture on LB-agar plate for overnight by colony counting method. The format is functional, organism-based.
Assay [5] is described as follows: Inhibition of HJ-DNA dependent Pseudomonas aeruginosa RuvB ATPase activity expressed in Escherichia coli BL21(DE3) assessed as inhibition of ATP hydrolysis preincubated with compound followed by ATP addition and measured after 1 hr by Kinase-Glo reagent based luminescence analysis.
For assay [6], the system named is Pseudomonas aeruginosa. The assay is described as follows: Binding affinity to CM5 chip immobilized Pseudomonas aeruginosa wild type RuvB expressed in Escherichia coli BL21(DE3) assessed as dissociation rate constant (kd) measured for 180 sec by surface plasmon resonance analysis.
In assay [7] the test system is Pseudomonas aeruginosa. Kind of assay: Binding affinity to CM5 chip immobilized Pseudomonas aeruginosa RuvB D114N mutant expressed in Escherichia coli BL21(DE3) assessed as dissociation rate constant (kd) measured for 180 sec by surface plasmon resonance analysis.
Assay [8] has as its system Pseudomonas aeruginosa. Kind of assay: Binding affinity to CM5 chip immobilized Pseudomonas aeruginosa wild type RuvB expressed in Escherichia coli BL21(DE3) assessed as association rate constant (ka) measured for 240 sec by surface plasmon resonance analysis.
The nature of assay [9]: Binding affinity to CM5 chip immobilized Pseudomonas aeruginosa wild type RuvB expressed in Escherichia coli BL21(DE3) assessed as dissociation constant measured for 180 sec by surface plasmon resonance analysis.
A short description of assay [10]: Inhibition of Bacillus subtilis RuvA/RuvB protein complex helicase activity expressed in Escherichia coli BL21(DE3) assessed as inhibition of HJ branch migration preincubated for 15 mins followed by substrate addition and measured after 1 hr using 5'-FAM labelled 5'-CACTGTGATGCACGATGATTGACGACAGTAGTCAGTGCTGCAGTGGTCAGGTGTC-3' HJ-a duplex DNA as substrate in presence of ATP by PAGE analysis.

Assay [11] can be described thus: Inhibition of Pseudomonas aeruginosa RuvA/RuvB protein complex helicase activity expressed in Escherichia coli BL21(DE3) assessed as inhibition of HJ branch migration preincubated for 15 mins followed by substrate addition and measured after 1 hr using 5'-FAM labelled 5'-CACTGTGATGCACGATGATTGACGACAGTAGTCAGTGCTGCAGTGGTCAGGTGTC-3' HJ-a duplex DNA as substrate in presence of ATP by PAGE analysis.

Assay [12] has as its system Pseudomonas aeruginosa. Kind of assay: Antimicrobial activity against Pseudomonas aeruginosa ATCC27853 assessed as colony formation at 2 uM preincubated for 1 hr followed by UV-light irradiation for 5 mins then culture on LB-agar plate for overnight by colony counting method. The assay is classed as functional, organism-based.
The subject of assay [13] is Pseudomonas aeruginosa. Kind of assay: Inhibition of Pseudomonas aeruginosa RuvA expressed in Escherichia coli BL21(DE3) binding to HJ DNA assessed as reduction in RuvA-HJ DNA complex formation at >20 uM and measured after 15 mins using 5'-FAM labelled Holliday junction DNA as substrate by EMSA analysis. On the technique in general: Mobility shift assays separate free from complexed probe on a gel.

The subject of assay [14] is Pseudomonas aeruginosa. Kind of assay: Inhibition of Pseudomonas aeruginosa RuvA expressed in Escherichia coli BL21(DE3) binding to HJ DNA assessed as reduction in RuvA-HJ DNA complex formation at 40 uM and measured after 15 mins using 5'-FAM labelled Holliday junction DNA as substrate by EMSA analysis.
Assay [15] relates to Pseudomonas aeruginosa. The assay is described as follows: Inhibition of Pseudomonas aeruginosa RuvA expressed in Escherichia coli BL21(DE3) binding to HJ DNA assessed as reduction in RuvA-HJ DNA complex formation at >10 uM and measured after 15 mins using 5'-FAM labelled Holliday junction DNA as substrate by EMSA analysis.

With `O=C(O[C@@H]1O[C@@H]2COC(=O)c3cc(O)c(O)c(O)c3-c3c(cc(O)c(O)c3O)C(=O)O[C@H]([C@H]1O)[C@@H]2O)c1cc(O)c(O)c(O)c1` [CORILAGIN], the half-inhibitory concentration (IC50) (as a rule, the concentration that gives 50% inhibition) in assay [1] was 1.11 µM; in assay [5] it was 2.32 µM; in assay [10] it was 0.84 µM; in assay [11], 0.399 µM. In addition, the Ka was 5.9 10^3/M/s in the assay with Pseudomonas aeruginosa [2] and 1.6 10^4/M/s in the assay with Pseudomonas aeruginosa [8]. Moreover, the dissociation constant Kd – broadly, a measure of binding affinity in units of concentration – was determined as 0.41 µM in assay [3] and 0.13 µM in [9]. Moreover, the outcome in the assay on Pseudomonas aeruginosa [4] was Active. The Kdiss was 2.2 10^-3/s in the assay on Pseudomonas aeruginosa [6] and 2.4 10^-3/s with Pseudomonas aeruginosa [7].

Consider `CC1=C(C)C(=O)C(CCCCCCCCCC[P+](c2ccccc2)(c2ccccc2)c2ccccc2)=CC1=O`, for which the outcome in the assay on Pseudomonas aeruginosa [12] was Active. Besides, the inhibition entry in the assay with Pseudomonas aeruginosa [13] and with Pseudomonas aeruginosa [14] was “Active” in each case. The values for the half-inhibitory concentration (IC50) in assay [1], in assay [10] and in [11] were 7.9 µM, 13.5 µM and 4.64 µM, respectively.

In the case of `COC(=O)[C@]12CCC(C)(C)C[C@H]1[C@H]1C(=O)C=C3[C@@]4(C)C=C(C#N)C(=O)C(C)(C)[C@@H]4CC[C@@]3(C)[C@]1(C)CC2` [BARDOXOLONE METHYL], the inhibition entry with Pseudomonas aeruginosa [15] and with Pseudomonas aeruginosa [14] was “Active” in each case. For the same compound, the outcome with Pseudomonas aeruginosa [4] was Active. For the same compound, the IC50 in assay [11] came out at 0.377 µM.
